The subject of experiment [1] is HCT-116. In words: Antiproliferative activity against human HCT116 cells after 72 hrs by Cell titer Glo assay. As to conditions: HCT-116, 72 h. It is filed as functional, cell-based.
Experiment [2] relates to HCT-116. The experiment is described as follows: Antiproliferative activity against IC50 biaryl selected drug-resistant against human HCT116 cells after 72 hrs by Cell titer Glo assay. It is filed as functional, cell-based. As to conditions: HCT-116, 72 h. On the technique in general: ATP-based viability assays read luminescence as a measure of living cells.
For experiment [3], the system named is HCT-116. In words: Antiproliferative activity against IC95 biaryl selected drug-resistant against human HCT116 cells after 72 hrs by Cell titer Glo assay. It is filed as functional, cell-based. The settings on record: HCT-116, 72 h.
Experiment [4] concerns HCT-116. The experiment is described as follows: Antiproliferative activity against IC50 biaryl selected human HCT116 cells expressing Kinesin-like protein KIF11 D130V mutant after 72 hrs by Cell titer Glo assay. The settings on record: HCT-116, 72 h. It is filed as functional, cell-based.
Experiment [5] concerns HCT-116. In words: Antiproliferative activity against 3x IC95 biaryl selected drug-resistant against human HCT116 cells after 72 hrs by Cell titer Glo assay. It is filed as functional, cell-based. As to conditions: HCT-116, 72 h.
For experiment [6], the system named is HCT-116. The experiment is described as follows: Antiproliferative activity against human HCT116 cells expressing Kinesin-like protein KIF11 D130V mutant after 72 hrs by Cell titer Glo assay. It is filed as functional, cell-based. As to conditions: HCT-116, 72 h.
Experiment [7] concerns HCT-116. The experiment is described as follows: Antiproliferative activity against 3x IC95 biaryl selected human HCT116 cells expressing Kinesin-like protein KIF11 D130V mutant after 72 hrs by Cell titer Glo assay. It is filed as functional, cell-based. As to conditions: HCT-116, 72 h.
For experiment [8], the system named is HCT-116. The experiment is described as follows: Antiproliferative activity against IC95 biaryl selected human HCT116 cells expressing Kinesin-like protein KIF11 D130V mutant after 72 hrs by Cell titer Glo assay. It is filed as functional, cell-based. As to conditions: HCT-116, 72 h.
The target in experiment [9] is T1, Kinesin-like protein KIF11 (Homo sapiens, UniProt P52732).
T1 sequence (P52732 whole entry): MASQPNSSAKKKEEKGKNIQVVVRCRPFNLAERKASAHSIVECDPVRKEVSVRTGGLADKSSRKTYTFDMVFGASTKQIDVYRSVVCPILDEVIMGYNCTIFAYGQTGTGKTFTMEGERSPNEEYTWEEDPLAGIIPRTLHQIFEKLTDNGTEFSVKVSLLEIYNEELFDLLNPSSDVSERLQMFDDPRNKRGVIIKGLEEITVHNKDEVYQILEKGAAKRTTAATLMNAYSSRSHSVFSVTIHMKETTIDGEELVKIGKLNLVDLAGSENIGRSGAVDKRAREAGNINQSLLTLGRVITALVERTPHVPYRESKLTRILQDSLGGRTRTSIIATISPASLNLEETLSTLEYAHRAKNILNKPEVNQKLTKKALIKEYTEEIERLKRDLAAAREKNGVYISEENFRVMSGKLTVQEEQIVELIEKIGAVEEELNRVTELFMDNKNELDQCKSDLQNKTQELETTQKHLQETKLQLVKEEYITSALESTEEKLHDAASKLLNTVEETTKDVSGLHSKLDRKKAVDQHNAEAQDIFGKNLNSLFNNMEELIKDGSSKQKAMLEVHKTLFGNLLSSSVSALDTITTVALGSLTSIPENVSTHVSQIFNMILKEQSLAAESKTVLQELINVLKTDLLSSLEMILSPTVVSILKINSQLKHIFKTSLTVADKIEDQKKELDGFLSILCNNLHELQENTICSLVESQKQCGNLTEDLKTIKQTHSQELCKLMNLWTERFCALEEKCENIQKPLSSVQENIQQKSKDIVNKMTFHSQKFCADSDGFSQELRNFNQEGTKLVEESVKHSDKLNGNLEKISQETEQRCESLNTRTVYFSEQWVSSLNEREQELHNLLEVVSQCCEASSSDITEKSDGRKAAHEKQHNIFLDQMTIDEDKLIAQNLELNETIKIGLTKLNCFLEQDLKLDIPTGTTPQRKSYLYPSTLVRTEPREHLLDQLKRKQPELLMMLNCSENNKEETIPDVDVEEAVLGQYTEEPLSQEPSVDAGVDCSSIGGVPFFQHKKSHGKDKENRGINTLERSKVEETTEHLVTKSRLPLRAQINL
The experiment is described as follows: Inhibition of human wild type Eg5 using varying ATP levels in presence of saturating levels of microtubule by Lineweaver-Burke plot.

Experiment [10] has as its target T2, Kinesin-like protein KIF11 (Homo sapiens) (UniProt P52732).
T2 sequence (whole entry): T1 sequence (P52732 whole entry)
In words: Binding affinity to human KSP assessed as photoaffinity labeling at Leu295 residue at 240 uM by photo affinity labeling study.

The values below come from ChEMBL document CHEMBL1221208, “ATP-competitive inhibitors of the mitotic kinesin KSP that function via an allosteric mechanism” (Nat Chem Biol, 2007).

Each structure is given as a SMILES string. Active and inactive are the calls of the source. No cut-off for these calls is given here.

What is called IC50 is the concentration at which inhibition is half-maximal. Turning to `Cc1ccc(C(=O)N(CCCN)[C@@H](c2nc3cc(Cl)ccc3c(=O)n2Cc2ccccc2)C(C)C)cc1F`, the IC50 stood at 0.46 nM in the experiment with HCT-116 [1]; 0.72 nM with HCT-116 [2]; 1 nM in the experiment with HCT-116 [3]; 1190 nM in the experiment on HCT-116 [4]; 22 nM in the experiment with HCT-116 [5]; 903 nM with HCT-116 [6]. For the same molecule, the results for the IC50 in the experiment with HCT-116 [7] and in the experiment with HCT-116 [8] were 87.3 nM and 675 nM, respectively.

Turning to `CC(=O)O[C@@]12CO[C@@H]1C[C@H](O)[C@@]1(C)C(=O)[C@H](O)C3=C(C)[C@@H](OC(=O)[C@H](O)[C@@H](NC(=O)OC(C)(C)C)c4ccccc4)C[C@@](O)([C@@H](OC(=O)c4ccccc4)[C@H]21)C3(C)C` [DOCETAXEL], the IC50 in the experiment on HCT-116 [1] is 0.3 nM; in the experiment on HCT-116 [2], 0.31 nM; with HCT-116 [3] it was 0.18 nM; in the experiment with HCT-116 [4], 0.2 nM; in the experiment on HCT-116 [5] it was 8.7 nM; in the experiment with HCT-116 [6], 0.23 nM. Besides, the 50% inhibitory concentration (IC50) in the experiment on HCT-116 [7] was found to be 0.35 nM; in the experiment with HCT-116 [8], 0.59 nM.

A word on the Ki: it is the dissociation constant of the complex between target and ligand, obtained from inhibition or displacement. For the molecule `NC(=O)Nc1ccc(-c2ccc(C3(C(F)(F)F)N=N3)cc2)cc1`, in [9], the inhibitory constant (Ki) came out at 330 nM. Moreover, the outcome in experiment [10] was Active.
